Our source for the IC50 values is patent US9422254B2, “Methoxyacrylate-based fungicide and methods for preparing and using the same” (priority 2008, dated 2016).

The structures appear in SMILES notation.

Common to all, as to assay type: biochemical
Assay [1] addresses T1, cytochrome bc1 complex of pig heart (Sus scrofa, UniProt P24964).
T1 construct: The test target is cytochrome bc1 complex of pig heart; from tissue; host or cells: pig heart
In words: Enzyme activity test, Complex III. Conditions: cytochrome bc1 complex of pig heart; read-out: IC50 (nM) Complex III. The protocol: (§1) Take NADH oxidase (NOX), succinate-cytochrome C oxidase (SCO), and Complex III as target enzymes, the inhibitory activity of the compound of Formula (I) was tested.
^b The test target is cytochrome bc1 complex of pig heart.

Assay [2] deals with NADH oxidase (NOX) (Sus scrofa, UniProt P24964). The experiment in a line: Enzyme activity test, NOX. The protocol:
as §1
(§2) ^a NOX is generally used to detect an inhibitor of Complex I and Complex III; SCO is generally used to detect an inhibitor of Complex II and Complex III. Thus, an inhibitor of Complex III should have inhibitory activity on the two enzymes.

Assay [3] has as its target succinate-cytochrome C oxidase (SCO) (Sus scrofa, UniProt P24964). The experiment in a line: Enzyme activity test, SCO. The protocol:
as §1, §2

NADH oxidase (NOX), sequence (P24964 whole entry): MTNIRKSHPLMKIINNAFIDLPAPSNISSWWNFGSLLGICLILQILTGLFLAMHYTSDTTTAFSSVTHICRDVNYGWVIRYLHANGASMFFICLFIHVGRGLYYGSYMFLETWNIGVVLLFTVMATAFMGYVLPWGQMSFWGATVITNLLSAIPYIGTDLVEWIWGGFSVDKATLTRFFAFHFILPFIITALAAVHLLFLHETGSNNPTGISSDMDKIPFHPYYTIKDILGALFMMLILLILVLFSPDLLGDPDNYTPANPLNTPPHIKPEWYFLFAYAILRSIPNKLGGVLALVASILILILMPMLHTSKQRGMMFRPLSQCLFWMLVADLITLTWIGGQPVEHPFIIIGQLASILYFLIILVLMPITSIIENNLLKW
succinate-cytochrome C oxidase (SCO), sequence (P24964 whole entry): as above
T1 sequence (P24964 whole entry, one chain of several): as the sequence (P24964 whole entry) above

For `CO/C=C(/C(=O)OC)c1ccccc1Oc1cc(Oc2ccccc2C#N)ncn1` [Azoxystrobin, azoxystrobin, reference compound], the half-maximal inhibitory concentration (IC50) in assay [1] turned out to be 200 nM; in assay [2] it was 27 nM; in assay [3], 13 nM.

By IC50 is commonly meant the concentration at which inhibition is half-maximal.
